Measurements taken from patent publication US8557998B2, “Benzylpiperizine compound” (Dainippon Sumitomo Pharma Co., Ltd, priority 2008, dated 2013).

Key:
[1] = target: T1, human serotonin transporter (h-SERT) (Homo sapiens, UniProt P31645); assay: Serotonin transporter function inhibition test using [3H]5-HT; format: cell-based; conditions: h-SERT/CHO cells, [3H]5-HT uptake approximately 10 nM, 37° C. 10 minutes; read-out: Test Example 5: h-SERT Function Inhibition Constant (Ki)
T1 construct: expressed in transfected cells; host or cells: CHO cells (h-SERT/CHO), Geneticin-selected
T1 sequence (P31645 whole entry): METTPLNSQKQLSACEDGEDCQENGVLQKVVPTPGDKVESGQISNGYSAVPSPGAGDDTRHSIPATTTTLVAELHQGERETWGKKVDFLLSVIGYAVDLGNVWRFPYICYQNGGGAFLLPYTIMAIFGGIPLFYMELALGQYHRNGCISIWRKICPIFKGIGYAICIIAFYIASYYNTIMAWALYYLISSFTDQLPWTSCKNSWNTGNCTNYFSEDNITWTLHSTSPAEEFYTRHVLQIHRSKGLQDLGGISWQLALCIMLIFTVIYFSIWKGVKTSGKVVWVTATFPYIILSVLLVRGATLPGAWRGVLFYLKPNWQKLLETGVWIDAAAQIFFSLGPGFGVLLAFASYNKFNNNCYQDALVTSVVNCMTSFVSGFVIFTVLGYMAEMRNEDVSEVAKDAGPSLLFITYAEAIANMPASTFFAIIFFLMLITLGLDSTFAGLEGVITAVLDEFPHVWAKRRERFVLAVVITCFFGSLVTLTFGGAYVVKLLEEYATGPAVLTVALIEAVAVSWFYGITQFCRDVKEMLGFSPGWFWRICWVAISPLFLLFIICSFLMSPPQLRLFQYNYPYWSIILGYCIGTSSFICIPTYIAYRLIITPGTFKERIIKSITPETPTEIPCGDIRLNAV
Method: 1-1 Cells Used and Preparation of Cell Suspension
CHO cells containing a human serotonin transporter (h-SERT) expressed therein (h-SERT/CHO) were used in the experiment. […] The collected cells were suspended in a buffer solution containing 0.1 mM CaCl2 and 1 mM MgCl2 in PBS (hereinafter, referred to as PBSCM) and stored in ice until use.
Specifically, 149 μl of the cell suspension (10×10^4 cells/well) and 1 μl of a solution of a test drug dissolved in dimethyl sulfoxide were preincubated at 37° C. for 10 minutes.

CYP2D6 [2] = target: T2, CYP2D6 (Homo sapiens, UniProt P10635); assay: Screening test of the rate of CYP2D6 contribution in human liver microsomal metabolism; format: in vitro ADME; conditions: 1 mg/mL human liver microsomes, 1 μM test substance, with/without quinidine 4 μM, 37° C.
T2 construct: Pooled of Human Liver Microsomes was purchased from Xenotech, LLC; tissue Xenotech, LLC; host or cells: pooled human liver microsomes
T2 sequence (P10635 whole entry): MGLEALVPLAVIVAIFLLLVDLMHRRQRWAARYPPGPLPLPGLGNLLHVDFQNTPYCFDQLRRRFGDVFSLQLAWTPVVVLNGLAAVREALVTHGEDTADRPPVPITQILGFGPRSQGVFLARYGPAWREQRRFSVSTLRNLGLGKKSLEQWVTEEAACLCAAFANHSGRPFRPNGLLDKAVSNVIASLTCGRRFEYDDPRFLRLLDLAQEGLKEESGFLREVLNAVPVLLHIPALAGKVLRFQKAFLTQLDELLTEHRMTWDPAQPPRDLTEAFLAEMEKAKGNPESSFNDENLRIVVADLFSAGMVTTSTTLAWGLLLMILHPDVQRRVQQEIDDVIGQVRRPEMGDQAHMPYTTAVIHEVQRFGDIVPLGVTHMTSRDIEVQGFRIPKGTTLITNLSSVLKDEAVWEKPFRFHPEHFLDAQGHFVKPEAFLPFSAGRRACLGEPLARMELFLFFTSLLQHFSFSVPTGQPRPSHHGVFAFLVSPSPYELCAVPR
Method: Screening Test of the Rate of CYP2D6 Contribution in Human Liver Microsomal Metabolism
0.2 mL of a 50 mM potassium phosphate buffer solution (pH 7.4) containing NADPH (final concentration: 3 mM, manufactured by Oriental Yeast Co., Ltd.), 1 mg/mL human liver microsomes (manufactured by XENOTECH, LLC), and a 1 μM test substance was heated on a water bath at 37° C. for metabolic reaction. After the reaction for 15 minutes or 30 minutes, methanol was added in a volume 3 times that of the reaction solution, and the mixture was stirred to terminate the reaction. This reaction solution was centrifuged for protein precipitation. Then, the supernatant was collected and subjected to LC-MS/MS analysis. The results were analyzed as follows:
The test substance was quantified, and time-dependent change in the amount of the substance remaining was logarithmically plotted. A metabolic rate was calculated from the slope.
The ratio of the metabolic rate obtained by the addition of quinidine (final concentration: 4 μM) to the reaction solution to the metabolic rate obtained without the addition was used as the rate of contribution of enzymes other than CYP2D6, and the rate of contribution obtained by subtracting this rate of contribution of other enzymes from the total was used as the rate of CYP2D6 contribution. Specifically, it was calculated according to the equation: Rate of contribution(%)={1−(metabolic rate [with quinidine]/metabolic rate[without quinidine])}×100. A smaller value of the rate of CYP2D6 contribution means smaller CYP2D6 contribution.

[3] = target: T3, human serotonin 1A receptor (h-5-HT1A) (Homo sapiens, UniProt P08908)
T3 sequence (P08908 1-422): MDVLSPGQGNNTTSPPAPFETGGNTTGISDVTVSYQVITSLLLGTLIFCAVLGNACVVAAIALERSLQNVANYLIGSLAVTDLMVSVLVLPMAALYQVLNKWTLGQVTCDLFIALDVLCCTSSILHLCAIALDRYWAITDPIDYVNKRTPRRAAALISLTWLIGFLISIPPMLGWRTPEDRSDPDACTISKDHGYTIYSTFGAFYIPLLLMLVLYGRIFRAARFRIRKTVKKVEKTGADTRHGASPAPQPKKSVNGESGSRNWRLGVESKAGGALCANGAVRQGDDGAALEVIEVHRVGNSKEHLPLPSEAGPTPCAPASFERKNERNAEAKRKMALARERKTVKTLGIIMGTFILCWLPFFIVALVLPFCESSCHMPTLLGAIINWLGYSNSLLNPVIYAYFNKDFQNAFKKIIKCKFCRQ
Method: The cells were cultured in F12 containing 10% FCS, 500 μg/ml Geneticin, and 100 U/ml penicillin-100 μg/ml streptomycin (all manufactured by Sigma-Aldrich Corp.) in a 5% CO2 incubator. […] Specifically, the cells were dissociated/collected using 50 mM Tris-HCl (pH=7.4). The resulting cells were homogenized using a Teflon (registered trademark) homogenizer and then centrifuged (48,000×g, 20 min, 4° C.). The pellet was resuspended in an appropriate amount of 50 mM Tris-HCl (pH=7.4) and stored at −80° C. until use. The amount of the protein in the membrane preparation was quantified using Dye Reagent Concentrate (manufactured by Bio-Rad Laboratories, Inc.) with bovine serum albumin (manufactured by Sigma-Aldrich Corp.) as a standard.
The reaction solution was reacted at room temperature for 30 minutes and then rapidly filtered by suction at a low pressure through glass fiber filter paper. The glass fiber filter paper was washed twice with 250 μl of 50 mM Tris-HCl (pH=7.4) and then added to a counting vial containing 4 ml of ACS-II (manufactured by Amersham Biosciences). Receptor binding radioactivity remaining on the filter paper was measured using a liquid scintillation counter.

CYP2D6 [4] = target: T2, CYP2D6; assay: CYP2D6 inhibition screening test; format: in vitro ADME; conditions: pooled human liver microsomes, substrate bufuralol, 37° C. 10 min, 1'-hydroxybufuralol by LC-MSMS; read-out: Test Example 3: CYP2D6 Inhibition IC50
Method: CYP2D6 Inhibition Screening Test
Bufuralol was purchased from Sigma-Aldrich Corp., and Pooled of Human Liver Microsomes was purchased from Xenotech, LLC.
150 μL of Pooled Human Liver Microsomes (20 mg/ml), 12 mL of a 0.5 M potassium phosphate buffer, 1.2 mL of a 165 mM magnesium chloride solution, and 34.65 mL of distilled water were mixed.
Bufuralol was dissolved at a concentration of 2.0 mM in DMSO and then diluted 200-fold with distilled water.
3-3 Experimental Procedures
1. A 10 mM DMSO solution of a test drug was serially diluted 5-fold with DMSO for 4 serial dilutions to prepare 10, 2, 0.4, and 0.08 mM DMSO solutions.
2. Each test drug solution of the step 1. and DMSO were separately diluted 96-fold with a human liver microsome solution, and each dilution was dispensed and 80 μL of each dilution to microplates.
3. 10 μL of a substrate solution and 10 μL of a β-NADPH solution were added to the well of the step 2., followed by incubation at 37° C. for 10 min.
4. The reaction was terminated by the addition of 300 μL of methanol.
5. The reaction mixture was filtered, and LC-MSMS analysis was conducted.
3-4 Quantification and Calculation
The amount of 1′-hydroxybufuralol produced was quantified by LC-MSMS, and this amount was used as a metabolic activity of CYP2D6 for each well. The remaining activity of each sample was determined by comparison with the activity obtained from DMSO as a test drug. An IC50 value of CYP2D6 inhibition was determined from the test drug concentration and remaining activity. The IC50 value was calculated by linear interpolation between two points that span the remaining activity 50%. A larger value of IC50 of CYP2D6 inhibition means weaker CYP2D6 inhibition.

[5] = target: T1, human serotonin transporter (h-SERT); assay: Screening test using [3H]citalopram binding for evaluating human serotonin reuptake inhibitory effect; conditions: h-SERT/CHO membrane preparation, [3H]citalopram approximately 2 nM, room temperature 60 minutes; read-out: Test Example 1: h-SERT binding inhibition constant (Ki)
From the text: CHO cells containing a human serotonin transporter (h-SERT) expressed therein (h-SERT/CHO) were used in the experiment.
1-2 Receptor Binding Experiment
A smaller value of the h-SERT binding inhibition constant Ki means a higher human serotonin reuptake inhibitory effect.

Ki [1]: 8.9 nM
Test Example 4: Rate of CYP2D6 Contribution (CYP2D6 [2]): 36%
Ki [3]: 4.5 nM
IC50 (CYP2D6 [4]): 27900 nM
Ki [5]: 0.87 nM
Structure (SMILES): COCCOc1cc(CC2CCN(CCc3ccc4c(c3)C(=O)CC4)CC2)ccc1Br [Example 1]
